Patent publication US8487093B2, “β-lactamase inhibitors” (Merck Sharp & Dohme Corp., priority 2008, dated 2013)
Like-named read-outs stand apart in the source and are kept apart here.

Legend:
AmpC (P. aeruginosa) = AmpC (P. aeruginosa) (Pseudomonas aeruginosa (strain ATCC 15692 / DSM 22644 / CIP 104116 / JCM 14847 / LMG 12228 / 1C / PRS 101 / PAO1), UniProt P24735); assay: biochemical
Protocol: The Class C enzyme activities were measured in the presence of the test inhibitor in spectrophotometric assay against the commercially available substrate, nitrocefin. The enzyme AmpC (P. aeruginosa.), and the substrate, were dissolved in 100 mM KH2PO4 buffer (pH 7). The buffer also contains 0.005% BSA. The test inhibitor was dissolved in DMSO and diluted 1:20 in the assay, resulting in a final concentration range of 50 μM to 0.0002 μM. In a 96-well microplate, the test inhibitor was incubated with the beta-lactamase enzyme for 40 minutes at ambient temperature, the substrate solution was added, and the incubation continued for another 40 minutes. […] The IC50 value was determined from semi logarithmic plots of enzyme inhibition versus inhibitor concentration, with a curve generated using a 4-parameter fit.

KPC-2 (K. pneumoniae) = KPC-2 (K. pneumoniae) (Klebsiella pneumoniae, UniProt Q9F663); assay: biochemical
Sequence of KPC-2 (K. pneumoniae) (Q9F663 25-293 limits assumed): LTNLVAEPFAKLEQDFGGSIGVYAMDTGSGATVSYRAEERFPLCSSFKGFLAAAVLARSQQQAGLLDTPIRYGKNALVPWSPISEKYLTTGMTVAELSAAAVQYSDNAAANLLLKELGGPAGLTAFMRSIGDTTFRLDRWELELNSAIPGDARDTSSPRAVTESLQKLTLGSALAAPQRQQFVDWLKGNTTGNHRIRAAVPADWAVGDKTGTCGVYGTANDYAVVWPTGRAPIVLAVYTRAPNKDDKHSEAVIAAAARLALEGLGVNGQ

[1] = Table 3, read-out: P.a. AmpC IC50
[2] = Table 3, read-out: K.p. KPC-2 IC50

Sequence of AmpC (P. aeruginosa) (P24735 27-397): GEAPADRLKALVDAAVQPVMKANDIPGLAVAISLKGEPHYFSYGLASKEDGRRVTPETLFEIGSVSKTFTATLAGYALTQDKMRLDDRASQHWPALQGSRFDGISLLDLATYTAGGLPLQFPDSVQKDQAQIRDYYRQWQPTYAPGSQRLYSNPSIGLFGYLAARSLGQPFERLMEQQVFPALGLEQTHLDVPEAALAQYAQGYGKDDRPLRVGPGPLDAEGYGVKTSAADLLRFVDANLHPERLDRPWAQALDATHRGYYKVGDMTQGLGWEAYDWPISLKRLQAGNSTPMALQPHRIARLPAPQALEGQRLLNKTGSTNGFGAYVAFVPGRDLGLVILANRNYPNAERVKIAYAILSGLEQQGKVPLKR

## O=C(NCC1CCNCC1)[C@@H]1CC[C@@H]2CN1C(=O)N2OS(=O)(=O)O [Example 40]
AmpC (P. aeruginosa); [1]
  IC50: 0.03 µM
KPC-2 (K. pneumoniae); K.p. KPC-2 IC50, Table 3
  IC50: 0.077 µM

## O=C(NC(CO)C1CCNCC1)[C@@H]1CC[C@@H]2CN1C(=O)N2OS(=O)(=O)O (stereo partly drawn) [Example 41]
AmpC (P. aeruginosa)
  IC50: 0.7 µM
KPC-2 (K. pneumoniae); [2]
  IC50: 0.32 µM

## O=C(NC[C@@H]1CNCCCO1)[C@@H]1CC[C@@H]2CN1C(=O)N2OS(=O)(=O)O [Example 42]
AmpC (P. aeruginosa)
  IC50: 0.1 µM
KPC-2 (K. pneumoniae); K.p. KPC-2 IC50, Table 3
  IC50: 0.11 µM

## O=C(NC[C@H]1CNCCCO1)[C@@H]1CC[C@@H]2CN1C(=O)N2OS(=O)(=O)O [Example 43]
AmpC (P. aeruginosa)
  IC50: 0.015 µM
KPC-2 (K. pneumoniae); K.p. KPC-2 IC50, Table 3
  IC50: 0.1 µM

## O=C(NCCC1CCNCC1)[C@@H]1CC[C@@H]2CN1C(=O)N2OS(=O)(=O)O [Example 44]
AmpC (P. aeruginosa); [1]
  IC50: 0.011 µM
KPC-2 (K. pneumoniae); [2]
  IC50: 0.045 µM

## O=C(NCCN1CCCCC1)[C@@H]1CC[C@@H]2CN1C(=O)N2OS(=O)(=O)O [Example 45]
AmpC (P. aeruginosa); [1]
  IC50: 0.18 µM
KPC-2 (K. pneumoniae); [2]
  IC50: 0.15 µM

## O=C(NCCN1CCNCC1)[C@@H]1CC[C@@H]2CN1C(=O)N2OS(=O)(=O)O [Example 46]
AmpC (P. aeruginosa); [1]
  IC50: 0.042 µM
KPC-2 (K. pneumoniae); [2]
  IC50: 0.096 µM

## O=C(NC1C2CNCC21)[C@@H]1CC[C@@H]2CN1C(=O)N2OS(=O)(=O)O (stereo partly drawn) [Example 47]
AmpC (P. aeruginosa); [1]
  IC50: 0.72 µM
KPC-2 (K. pneumoniae); [2]
  IC50: 10 µM

## CN(C(=O)[C@@H]1CC[C@@H]2CN1C(=O)N2OS(=O)(=O)O)C1CCNCC1 [Example 48]
AmpC (P. aeruginosa); [1]
  IC50: 0.29 µM
KPC-2 (K. pneumoniae); [2]
  IC50: 2.5 µM

## NCC1CCCCN1C(=O)[C@@H]1CC[C@@H]2CN1C(=O)N2OS(=O)(=O)O (stereo partly drawn) [Example 49]
AmpC (P. aeruginosa); [1]
  IC50: 7.5 µM
KPC-2 (K. pneumoniae); [2]
  IC50: 0.78 µM

## NC1CCN(C(=O)[C@@H]2CC[C@@H]3CN2C(=O)N3OS(=O)(=O)O)CC1 [Example 50]
AmpC (P. aeruginosa); [1]
  IC50: 0.82 µM
KPC-2 (K. pneumoniae); [2]
  IC50: 0.008 µM

## O=C([C@@H]1CC[C@@H]2CN1C(=O)N2OS(=O)(=O)O)N1CCNCC1 [Example 51]
AmpC (P. aeruginosa); [1]
  IC50: 2.2 µM
KPC-2 (K. pneumoniae); [2]
  IC50: 0.52 µM

## O=C([C@@H]1CC[C@@H]2CN1C(=O)N2OS(=O)(=O)O)N1CC2(CCNCC2)C1 [Example 52]
AmpC (P. aeruginosa)
  IC50: 0.59 µM
KPC-2 (K. pneumoniae); [2]
  IC50: 1 µM

## O=C([C@@H]1CC[C@@H]2CN1C(=O)N2OS(=O)(=O)O)N1CC2CNCC2C1 (stereo partly drawn) [Example 53]
AmpC (P. aeruginosa)
  IC50: 1 µM
KPC-2 (K. pneumoniae); [2]
  IC50: 0.033 µM

## N[C@@H]1CCN(C(=O)[C@@H]2CC[C@@H]3CN2C(=O)N3OS(=O)(=O)O)C1 [Example 54]
AmpC (P. aeruginosa); [1]
  IC50: 0.84 µM
KPC-2 (K. pneumoniae); [2]
  IC50: 3.2 µM

## N[C@H]1CCN(C(=O)[C@@H]2CC[C@@H]3CN2C(=O)N3OS(=O)(=O)O)C1 [Example 55]
AmpC (P. aeruginosa); [1]
  IC50: 1.4 µM
KPC-2 (K. pneumoniae); [2]
  IC50: 1.5 µM

## CN(C)C1CCN(C(=O)[C@@H]2CC[C@@H]3CN2C(=O)N3OS(=O)(=O)O)C1 (stereo partly drawn) [Example 56]
AmpC (P. aeruginosa); [1]
  IC50: 0.27 µM
KPC-2 (K. pneumoniae); [2]
  IC50: 1.6 µM

## NCc1ccc(NC(=O)[C@@H]2CC[C@@H]3CN2C(=O)N3OS(=O)(=O)O)cc1 [Example 57]
AmpC (P. aeruginosa); [1]
  IC50: 0.02 µM
KPC-2 (K. pneumoniae); [2]
  IC50: 0.072 µM

## NCc1cccc(NC(=O)[C@@H]2CC[C@@H]3CN2C(=O)N3OS(=O)(=O)O)c1 [Example 58]
AmpC (P. aeruginosa)
  IC50: 0.034 µM
KPC-2 (K. pneumoniae); [2]
  IC50: 0.104 µM

## NCc1ccccc1NC(=O)[C@@H]1CC[C@@H]2CN1C(=O)N2OS(=O)(=O)O [Example 59]
AmpC (P. aeruginosa)
  IC50: 0.292 µM
KPC-2 (K. pneumoniae); [2]
  IC50: 0.109 µM

## CNCc1ccc(NC(=O)[C@@H]2CC[C@@H]3CN2C(=O)N3OS(=O)(=O)O)cc1 [Example 60]
AmpC (P. aeruginosa); [1]
  IC50: 0.018 µM
KPC-2 (K. pneumoniae); [2]
  IC50: 0.056 µM

## CNCc1cccc(NC(=O)[C@@H]2CC[C@@H]3CN2C(=O)N3OS(=O)(=O)O)c1 [Example 61]
AmpC (P. aeruginosa)
  IC50: 0.022 µM
KPC-2 (K. pneumoniae); [2]
  IC50: 0.078 µM

## CN(C)Cc1ccc(NC(=O)[C@@H]2CC[C@@H]3CN2C(=O)N3OS(=O)(=O)O)cc1 [Example 62]
AmpC (P. aeruginosa); [1]
  IC50: 0.018 µM
KPC-2 (K. pneumoniae); [2]
  IC50: 0.054 µM

## O=C(Nc1ccc(CN2CCCC2)cc1)[C@@H]1CC[C@@H]2CN1C(=O)N2OS(=O)(=O)O [Example 63]
AmpC (P. aeruginosa); [1]
  IC50: 0.022 µM
KPC-2 (K. pneumoniae); [2]
  IC50: 0.085 µM

## O=C(Nc1ccc2c(c1)CNC2)[C@@H]1CC[C@@H]2CN1C(=O)N2OS(=O)(=O)O [Example 65]
AmpC (P. aeruginosa); [1]
  IC50: 0.016 µM
KPC-2 (K. pneumoniae); [2]
  IC50: 0.06 µM

## O=C(Nc1ccc2c(c1)CCN2)[C@@H]1CC[C@@H]2CN1C(=O)N2OS(=O)(=O)O [Example 66]
AmpC (P. aeruginosa); [1]
  IC50: 0.056 µM
KPC-2 (K. pneumoniae); [2]
  IC50: 0.041 µM

## O=C(O)c1ccc(NC(=O)[C@@H]2CC[C@@H]3CN2C(=O)N3OS(=O)(=O)O)cc1 [Example 67]
AmpC (P. aeruginosa); [1]
  IC50: 0.011 µM
KPC-2 (K. pneumoniae); [2]
  IC50: 0.01 µM
